Measurements reported in US20240261418A1, “SOS1 DEGRADING AGENT AND PREPARATION METHOD THEREFOR AND APPLICATION THEREOF” (SHANGHAI LEADINGTAC PHARMACEUTICAL CO. LTD., priority 2021, published 2024).
pIC50: −log10 of the molar value.

What was measured:
[1] = target: T1, KRAS-G12C/SOS1 (Homo sapiens, UniProt Q07889); experiment: KRAS-G12C/SOS1 binding assay (HTRF); conditions: inhibition of KRAS-G12C/SOS1 binding
T1 construct: purchased Cisbio 63ADK000CB16PEG
T1 sequence (Q07889 1-1333): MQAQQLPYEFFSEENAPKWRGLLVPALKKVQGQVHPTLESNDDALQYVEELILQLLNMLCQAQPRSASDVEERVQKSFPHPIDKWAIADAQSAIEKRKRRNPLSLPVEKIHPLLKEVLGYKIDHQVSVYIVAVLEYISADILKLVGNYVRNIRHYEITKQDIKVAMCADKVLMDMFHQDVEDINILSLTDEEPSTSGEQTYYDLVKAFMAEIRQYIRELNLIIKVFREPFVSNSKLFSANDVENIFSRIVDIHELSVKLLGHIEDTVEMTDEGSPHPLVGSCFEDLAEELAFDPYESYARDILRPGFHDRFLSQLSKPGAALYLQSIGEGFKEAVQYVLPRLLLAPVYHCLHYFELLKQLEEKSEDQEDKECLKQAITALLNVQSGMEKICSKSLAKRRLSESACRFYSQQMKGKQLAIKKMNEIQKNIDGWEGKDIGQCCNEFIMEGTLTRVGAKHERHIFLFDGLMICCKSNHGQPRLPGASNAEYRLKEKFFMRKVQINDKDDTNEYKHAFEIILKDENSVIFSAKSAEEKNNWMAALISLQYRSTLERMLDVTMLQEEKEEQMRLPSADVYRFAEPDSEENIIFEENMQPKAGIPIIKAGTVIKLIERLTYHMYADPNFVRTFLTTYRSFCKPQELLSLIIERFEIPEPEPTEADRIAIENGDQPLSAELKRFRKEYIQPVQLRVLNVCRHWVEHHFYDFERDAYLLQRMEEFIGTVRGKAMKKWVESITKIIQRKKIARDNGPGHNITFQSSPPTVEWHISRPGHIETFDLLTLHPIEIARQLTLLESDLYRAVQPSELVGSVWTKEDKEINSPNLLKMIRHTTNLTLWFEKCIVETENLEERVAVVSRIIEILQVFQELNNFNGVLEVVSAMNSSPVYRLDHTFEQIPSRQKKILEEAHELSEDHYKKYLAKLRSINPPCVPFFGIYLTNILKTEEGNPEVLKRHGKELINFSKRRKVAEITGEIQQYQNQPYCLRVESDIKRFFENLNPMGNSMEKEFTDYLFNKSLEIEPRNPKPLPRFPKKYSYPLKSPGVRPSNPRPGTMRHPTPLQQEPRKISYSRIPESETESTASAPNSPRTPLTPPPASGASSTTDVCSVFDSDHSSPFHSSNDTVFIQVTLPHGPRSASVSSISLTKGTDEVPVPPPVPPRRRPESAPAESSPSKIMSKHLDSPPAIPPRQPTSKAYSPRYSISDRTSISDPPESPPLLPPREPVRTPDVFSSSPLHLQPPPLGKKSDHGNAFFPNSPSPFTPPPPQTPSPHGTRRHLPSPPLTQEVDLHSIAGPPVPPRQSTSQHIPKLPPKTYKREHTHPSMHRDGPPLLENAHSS
Protocol: Test Example 1: KRAS-G12C/SOS1 Binding Assay
The following method was used to determine the extent of inhibition of KRAS-G12C/SOS1 binding by the preferred compounds of the present invention under in vitro conditions. In this method, the competitive inhibition of KRAS-G12C/SOS1 binding by the preferred compounds was assayed by the homogeneous time-resolved fluorescence (HTRF) technology using the KRAS-G12C/SOS1 binding assay kit (Cisbio, 63ADK000CB16PEG).
The experimental procedures were as follows (refer to the kit instructions for details): the compounds of the present invention were each firstly dissolved in DMSO at a concentration of 20 mM, and then diluted in an equal gradient with a buffer in the kit, so that the final concentrations of the test compounds in the reaction system were in a range of 10000 nM-0.04 nM, and the final concentration of DMSO was 0.5%. 2 μL of the compounds were each incubated with 4 μL of 1×Tag1-SOS1, 4 μL of 1×Tag2-KRAS-G12C (containing 10 μM guanosine triphosphate, GTP) at 25° C. for 15 min. Then 5 μL of 1×Anti-Tag1-Tb3+ and 5 μL of 1×Anti-Tag2-XL665 were added to the reaction system, and the mixture was incubated on ice for 3 h. After the incubation, the fluorescence intensity of each well was measured at the excitation wavelength of 337 nm, the fluorescence intensity of each well was read at the emission wavelengths of 620 nm and 665 nm on a microplate reader EnVision (PerkinElmer, 2105) in an HTRF mode, and the Ratio value was calculated by the formula Ratio=(665 nm/620 nm)×[…]. The inhibition rates of the compounds at each concentration were calculated by comparing the fluorescence intensity ratio with that of the control group, and then nonlinear curve fitting was performed by GraphPad Prism 8 in the logarithmic concentration-inhibition rate to obtain the IC50 values of the compounds, as shown in Table 1.

[2] = tested on: KRAS G12C mutant human non-small cell lung cancer cells NCI-H358; experiment: 3D cell proliferation inhibition assay, NCI-H358; type: cell-based; conditions: NCI-H358, 168 h, 7 days, CTG
From the text: Test Example 4: 3D Cell Proliferation Inhibition Assay
The inhibitory effect of the compounds on the proliferation of 3D cells was investigated on KRAS G12C mutant human non-small cell lung cancer cells NCI-H358 (ATCC or Stem Cell Bank, Chinese Academy of Sciences), KRAS G12D mutant human metastatic pancreatic adenocarcinoma cells AsPC-1 (ATCC), KRAS G12V mutant human lung adenocarcinoma cells NCI-H441 (ATCC), and KRAS G13D mutant human colorectal adenocarcinoma epithelial cells DLD-1 (ATCC). The specific procedures were as follows:
200 nL of compound solution diluted in a gradient was added to corresponding microwells of a 384-well low-adsorption microwell plate (Corning, 3657) using an Echo sonic pipetting system (Labcyte, Echo 550), so that the final concentration of the test compound in the reaction system was in a range of 20000 nM-0.008 nM. Then 40 μL of cells at a certain density were added to the corresponding microplate. In addition to test wells for the test compounds, both a DMSO control well and a medium control well were set, with the DMSO control well containing DMSO and cells and the medium well containing only medium. […] The plate was incubated at room temperature for 30 min and read on a microplate reader EnVision using the chemiluminescence program. […]

Row | Structure (SMILES) | pIC50 [1] | pIC50 [2]
1 | COc1cc2nc(C)nc(N[C@H](C)c3cc(-c4c(Cl)cccc4CN(C)C)cs3)c2cc1[C@H]1CC[C@H](C(=O)N2CCN(CC3CCC4(CC3)CCN(C(=O)c3ccc(Cl)c(N5CCC(=O)NC5=O)c3)CC4)CC2)CC1 [Example 1, 1-(2-chloro-5-(9-((4-((1R,4R)-4-(4-(((R)-1-(4-(2-chloro-6-((dimethylamino)methyl)phenyl)thien-2-yl)ethyl)amino)-7-methoxy-2-methylquinazolin-6-yl)cyclohexane-1-carbonyl)piperazin-1-yl)methyl)-3-azaspiro[5.5]undecane-3-carbonyl)phenyl)dihydropyrimidine-2,4(1H,3H)-dione] | ≥ 7.82 | ≥ 7.82
2 | COc1cc2nc(C)nc(N[C@H](C)c3cc(-c4c(Cl)cccc4CN(C)C)cs3)c2cc1[C@H]1CC[C@H](C(=O)N2CCC(CCOCC3CCN(C(=O)c4ccc(Cl)c(N5CCC(=O)NC5=O)c4)CC3)CC2)CC1 [Example 5, 1-(2-chloro-5-(4-((2-(1-((1R,4R)-4-(4-(((R)-1-(4-(2-chloro-6-((dimethylamino)methyl)phenyl)thien-2-yl)ethyl)amino)-7-methoxy-2-methylquinazolin-6-yl)cyclohexane-1-carbonyl)piperidin-4-yl)ethoxy)methyl)piperidine-1-carbonyl)phenyl)dihydropyrimidine-2,4(1H,3H)-dione] | ≥ 7.82 | ≥ 7.82
